Results on one compound are retold here after US20260248872A1, “WITHANIA SOMNIFERA COMPOSITION FOR IMPROVING MEMORY AND COGNITION” (ARJUNA NATURAL PRIVATE LIMITED, priority 2023, published 2026).

What all share (assay type): in vivo, rat
Experiment [1] deals with male SD rats. In words: Elevated plus maze, transfer latency, scopolamine-induced amnesia. Particulars: scopolamine 0.6 mg/kg i.p., Ashwagandha extract 100 mg/kg, Piracetam 200 mg/kg, 10 days, Mean ± SEM (n = 6). The procedure: (§1) Twenty-four male SD rats were divided into four groups comprising of 6 rats in each group. The animals were treated as per the following details: • Group 1: Normal control (0.5% Polysorbate 80; 10 ml/kg) • Group 2: Untreated control (Scopolamine; 0.6 mg/kg i.p.) • Group 3: Piracetam—200 mg/kg+Scopolamine 0.6 mg/kg i.p. • Group 4: Ashwagandha extract (Sample 4)—100 mg/kg+Scopolamine 0.6 mg/kg i.p.
(§2) The vehicle/extract/standard was administered daily for 10 consecutive days. Habituation to swimming was conducted on day 6 of the experiment. Scopolamine was injected 30 minutes after the vehicle/extract/standard to the designated groups. The following behavioural test was conducted at the end of the treatment by using Elevated plus maze apparatus, Y maze model and Cooks pole climbing method.
The elevated plus-maze consists of two open arms and two closed arms (50×10×40 cm each) were elevated to a height of 50 cm. The rats were placed individually at the end of an open arm facing away from the central platform, and the time taken by them to move from there to either of the close arm transfer latency was recorded. […] The rats were allowed to explore the maze for another 10 seconds and then return to the home cage. […] On the 10th day Standard and test substances were administered orally 30 mins before scopolamine injection transfer latency was recorded.

The subject of experiment [2] is male SD rats. The experiment in a line: Cooks pole climbing test, conditioned avoidance, scopolamine-induced amnesia. As to conditions: scopolamine 0.6 mg/kg i.p., Ashwagandha extract 100 mg/kg, Piracetam 200 mg/kg, Mean ± SEM (n = 6). The procedure: as §1, §2
Pole climbing test: Rats were trained in such a way that the animal had to climb the pole (shock free zone) within 30 s to avoid a shock. The shock was preceded by a buzzer that lasted for 15 s. The animals were trained to climb the pole at the sound of the buzzer (conditioned avoidance response). At particular intervals, 20 trials were given for each animal and average of the shock avoidance and mistakes were recorded. Trained animals were assayed by conditioned avoidance responses.

Experiment [3] concerns male SD rats. In words: Y-Maze model, scopolamine-induced amnesia. As to conditions: scopolamine 0.6 mg/kg i.p., Ashwagandha extract 100 mg/kg, Piracetam 200 mg/kg, Mean ± SEM (n = 6). The protocol: as §1, §2
Y-Maze model—The treatment was started (as per the groups mentioned) for animals from the day 1 and continues up to day 8. […] Briefly, each time animals were placed just inside arm B facing away from the center and allowed to move through apparatus for 8 min, while being monitored by tracking system. […] Each arm entry (defined as all four paws entering arm) was scored and recorded. Animals were returned to home cage and numbers of fecal pellets were counted in the Y maze and data was recorded. […]

Experiment [4] concerns male SD rats. In words: Morris Water Maze (MWM), scopolamine-induced amnesia. As to conditions: scopolamine 0.6 mg/kg i.p., Ashwagandha extract 100 mg/kg, Piracetam 200 mg/kg, mean. The procedure:
as §1, §2
The MWM consists of a circular pool (180 cm in diameter and 60 cm in height) with a featureless inner surface. The circular pool was filled with water (23±1° C.) up to a height of 40 cm. The pool was divided into four quadrants of equal area. The escape platform was centered in one of the four quadrants. The day before the training experiments (day 6), animals were habituated to swim training for 60 s in the absence of the platform. The animals were treated with vehicle/extract/standard drug for 6 days. On day 7, 30 min after the administration of vehicle/extract/standard drug, scopolamine (0.6 mg/kg, i.p.) was injected. Training session was started 30 min after scopolamine administration. The rats were given four trial sessions each day for four consecutive days (day 7-10), with an inter-trial interval of 15 min, and the escape latencies were recorded. Once the rat located the platform, it was permitted to remain on it for 15 s to observe the vital clues. […] On day 11, the probe test was performed by removing the platform from the pool and a cut-off time of 60 s was kept for exploring. The time spent by the animal in the target quadrant was recorded. The higher value of the time spent in quadrant indicate better retention ability as the animal remembered the position of the platform.

With `NC(=O)CN1CCCC1=O` [Piracetam], the “Transfer Latency” value with male SD rats [1] came out at 7.00 ± 0.89 s. For the same compound, in the experiment on male SD rats [2], the Avoidance/Escape latency is 6.00 ± 0.89 s. For the same compound, the “Number of Arm entries” value with male SD rats [3] is 5.00 ± 0.89. Further, in the experiment on male SD rats [3], the “Retention Latency” value was 2.07 ± 0.46 min. Besides, the “Time to reach escape platform on training days” value in the experiment with male SD rats [4] (MWM Day 7) was 74.25 s; with male SD rats [4] (MWM Day 8), 47.33 s; with male SD rats [4] (MWM Day 9), 9.83 s; with male SD rats [4] (MWM Day 10), 5.25 s.
